Source: ChEMBL document CHEMBL1201862, “PubChem BioAssay data set” (2004)
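Following 48 hours of exposure in 96-well plates, responses at five concentrations were used to interpolate endpoints linearly. GI50 = concentration required for 50% inhibition of growth.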 Calls of active or inactive are those of the source. No stated cut-off is given here; in the data, active = GI50 up to about 1.1 µM and inactive = higher.

Legend:
Experiment in all cases: growth of human tumour cells (NCI), 48 h
OVCAR-5 = test system: OVCAR-5
RPMI-8226 = test system: RPMI-8226
SF-539 = test system: SF-539
786-0 = test system: 786-0
HOP-62 = test system: HOP-62
TK-10 = test system: TK-10
ACHN = test system: ACHN
EKVX = test system: EKVX
SK-MEL-28 = test system: SK-MEL-28
OVCAR-8 = test system: OVCAR-8
UACC-257 = test system: UACC-257
MDA-MB-435 = test system: MDA-MB-435
SNB-19 = test system: SNB-19
NCI/ADR-RES = test system: NCI/ADR-RES
T47D = test system: T47D
LOX IMVI = test system: LOX IMVI
MDA-N = test system: MDA-N
A498 = test system: A498
OVCAR-3 = test system: OVCAR-3
MCF7 = test system: MCF7

Row | SMILES | GI50 (OVCAR-5) | GI50 (RPMI-8226) | GI50 (SF-539) | GI50 (786-0) | GI50 (HOP-62) | GI50 (TK-10) | GI50 (ACHN) | GI50 (EKVX) | GI50 (SK-MEL-28) | GI50 (OVCAR-8) | GI50 (UACC-257) | GI50 (MDA-MB-435) | GI50 (SNB-19) | GI50 (NCI/ADR-RES) | GI50 (T47D) | GI50 (LOX IMVI) | GI50 (MDA-N) | GI50 (A498) | GI50 (OVCAR-3) | GI50 (MCF7)
1 | CS(=O)(=O)OCCN(CCOS(C)(=O)=O)c1ccc(/C=N/c2ccc(-c3csc(COc4ccccc4)n3)cc2)cc1 | 3.73 µM (inactive) | 4.47 µM (inactive) | 2.86 µM (inactive) | 0.429 µM (active) | 1.32 µM (inactive) | 3.05 µM (inactive) | 0.407 µM (active) | 5.5 µM (inactive) | 12.7 µM (inactive) | 6.17 µM (inactive) | 10.2 µM (inactive) | 12.4 µM (inactive) | 9.16 µM (inactive) | 10.1 µM (inactive) | 1.32 µM (inactive) | 4.27 µM (inactive) | 11 µM (inactive) | 2.6 µM (inactive) | 1.24 µM (inactive) | 5.42 µM (inactive)
2 | COc1ccc2nc(-c3ccc(O)cc3)sc2c1 | 17.7 µM (inactive) | < 0.01 µM (active) | 21.4 µM (inactive) | 15.6 µM (inactive) |  | 34.7 µM (inactive) | 18 µM (inactive) | 18.1 µM (inactive) |  | 20.7 µM (inactive) | 21.6 µM (inactive) | 25.2 µM (inactive) | 34.7 µM (inactive) | 29.8 µM (inactive) | 17.5 µM (inactive) | 22.6 µM (inactive) | 22.5 µM (inactive) | 30.3 µM (inactive) | 19.6 µM (inactive) | 34.7 µM (inactive)
3 | CCOC1Oc2ccccc2-c2nc(N)ncc21 (centres undefined) | > 100 µM (inactive) | 40 µM (inactive) | 33.4 µM (inactive) | 58.7 µM (inactive) |  | 33.2 µM (inactive) | 59.4 µM (inactive) | 45.1 µM (inactive) |  | 61.9 µM (inactive) | 55.2 µM (inactive) | 21.7 µM (inactive) | > 100 µM (inactive) | 39.7 µM (inactive) | 51.3 µM (inactive) | 27 µM (inactive) | 31.6 µM (inactive) | 22.7 µM (inactive) | 57 µM (inactive) | 37.4 µM (inactive)
4 | N#C/C(=C/NC(=S)NCc1ccccc1)C(N)=O | > 100 µM (inactive) | > 100 µM (inactive) | > 100 µM (inactive) | > 100 µM (inactive) | > 100 µM (inactive) |  | > 100 µM (inactive) | > 100 µM (inactive) | > 100 µM (inactive) | > 100 µM (inactive) | > 100 µM (inactive) | > 100 µM (inactive) | > 100 µM (inactive) | > 100 µM (inactive) | > 100 µM (inactive) | > 100 µM (inactive) | > 100 µM (inactive) | > 100 µM (inactive) | 0.063 µM (active) | > 100 µM (inactive)
5 | [O-]c1c[n+](CC[n+]2cc([O-])on2)no1 | > 100 µM (inactive) | > 100 µM (inactive) |  | > 100 µM (inactive) | > 100 µM (inactive) | > 100 µM (inactive) | > 100 µM (inactive) | > 100 µM (inactive) | > 100 µM (inactive) | > 100 µM (inactive) | > 100 µM (inactive) | > 100 µM (inactive) | > 100 µM (inactive) | > 100 µM (inactive) | > 100 µM (inactive) | > 100 µM (inactive) | > 100 µM (inactive) | > 100 µM (inactive) | > 100 µM (inactive) | > 100 µM (inactive)
